Reference: US10322123B2, “Compound for anti-cancer therapy that acts by targeting GOF mutant P53 and stimulates P73 to restore the P53 pathway signaling” (The Penn State Research Foundation, priority 2014, dated 2019)
Residues, ends and D or L forms follow the SMILES beside them. *: point of attachment. Cbz = O=C(OCc1ccccc1)*

Target: mutant p53 (Homo sapiens, UniProt P04637, P309S/R273H)
Assay type: cell-based
Design: Mutant p53 protein levels in mutant p53-expressing cancer cells treated with NSC59984; endogenous in cells; host or cells: SW480, DLD-1, Hop92, RXF393; effect on NSC59984-mediated down-regulation of mutant p53: dose or concentration left out as unconfirmed
Details: SW480 cells, MG132 with NSC59984, 16 hr
Method: The primary antibodies indicated in the figures were incubated with the transferred PVDF in blocking buffer at 4° C. overnight. Antibody binding was detected on PVDF with appropriate IRDye-secondary antibodies (LI-COR Biosciences, USA) by the ODYSSEY infrared imaging system.

Which “effect on NSC59984-mediated down-regulation of mutant p53” value does the source give for `CC(C)C[C@@H](C=O)NC(=O)[C@H](CC(C)C)NC(=O)[C@H](CC(C)C)NC(=O)OCc1ccccc1` [MG132, reference compound] (Cbz-Leu-Leu-Leu-aldehyde) here?
The value was “rescued”.
